Measurements as given in patent US8026237B2, “Pyrrole derivatives as pharmaceutical agents” (Exelixis, Inc., priority 2004, dated 2011).
In brackets after ≈: the same amount, converted by molar mass.

System: not listed separately
Experiment: Kinetic solubility assay
Conditions: pH 7.4, aqueous buffer, kinetic from dmso stock
Protocol: The kinetic solubility of test compounds in buffer was evaluated using a 96 well filtration plate format. A 500 μM assay solution in PBS, pH7.4 (or other assay buffer, as needed) was generated form a DMSO stock solution (up to 10 mM). Samples were transferred to a 96 Millipore MultiScreen HTS 96-well Filter plate (Cat# MSSLBPC10) mixed by shaking for 1.5 hours and processed by filtration prior to quantitation by HPLC-UV. Amiodarone and testosterone were used as reference controls.

Structure (SMILES) | solubility kinetic at 1.5 h [µM]
C[C@]12CC[C@H]3[C@@H](CCC4=CC(=O)CC[C@@]43C)[C@@H]1CC[C@@H]2O [testosterone] | ~330 (≈ 95.2 µg/mL)

Biological target: T1, human MR (GAL4-MR chimera, amino acids 671 to 984) (Homo sapiens, UniProt P08235)
T1 construct: expressed in transfected cells; host or cells: CV-1 (African Green Monkey Kidney Cells)
T1 sequence (P08235 671-984): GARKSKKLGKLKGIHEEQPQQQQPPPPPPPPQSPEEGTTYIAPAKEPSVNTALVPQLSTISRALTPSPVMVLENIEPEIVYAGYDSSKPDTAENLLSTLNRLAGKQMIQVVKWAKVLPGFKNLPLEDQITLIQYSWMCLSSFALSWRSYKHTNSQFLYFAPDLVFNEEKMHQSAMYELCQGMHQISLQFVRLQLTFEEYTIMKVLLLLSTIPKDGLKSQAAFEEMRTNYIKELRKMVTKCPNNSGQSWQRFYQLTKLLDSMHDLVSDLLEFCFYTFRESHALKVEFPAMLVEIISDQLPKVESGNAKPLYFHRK
Experiment: GAL4-MR cell based assay (antagonist format)
Conditions: not given
Protocol: Compound activity was determined in a cell-based assay using a GAL4-MR chimera to identify compounds with the ability to modulate MR activity.
The pCMX-GAL4-MR expression plasmid was constructed by cloning nucleotides encoding amino acids 671 to 984 of human MR (see GenBank sequence AAA59571) into the vector pCMX-GAL4 (Perlmann et al., 1993,Genes & Development 7:1411-1422) comprising nucleotides encoding for amino acids 1-147 of the GAL4 DNA binding domain.
The TK-MH100x4-Luc (GAL4UAS-TK-Luciferase) reporter construct was constructed by insertion of four copies of the Gal4 UAS (Kang et al. 1993, J. Biol. Chem. 268:9629-9635) into the Hind III site of TK-Luc. The parental plasmid, TK-Luc, was prepared by insertion of the Herpes simplex virus thymidine kinase gene promoter (−105 to +51) obtained from the plasmid pBLCAT2 by digestion with HindIII and XhoI (described in Luckow et al., 1987, Nuc. Acid. Res. 15:5490) into the plasmid MMTV-LUC described by Hollenberg and Evans, 1988, Cell 55:899-906) after removal of MMTV-LTR promoter sequence from MMTV-LUC via digestion with HindIII and XhoI. Correct cloning was confirmed by restriction digestion and/or sequencing.
Assays were performed using CV-1 (African Green Monkey Kidney Cells) (ATCC) cells grown in T175 flasks at a density of 3×10^6 cells/flask in DMEM with 5% FBS. Cells were transfected one day after plating at 70-80 percent confluency with a DNA mixture containing (per T175 flask) 9 μg pCMX-GAL4-MR, 9 μg TK-MH100x4-Luc, and 2 μg pCMX β-Gal using the transfection reagent FuGENE6 (Roche Molecular Biochemicals, Indianapolis, Ind.) following recommended protocols and instructions provided by the manufacturer, and incubated with transfection reagents for 5 hours at 37° C.
Transfected cells were trypsinized, resuspended in media, and 45 μL was added to assay plates at a density of approximately 5,000 cells/well using a MultiDrop dispenser (MTX Lab Systems, Inc., VA). The assay plates containing both compounds and screening cells were incubated for approximately 20 hours at 37° C. and 5% CO2 in a tissue culture incubator.
After incubation of the transfected cells with compounds, Lysis buffer (1% Triton X-100, 10% Glycerol, 5 mM DTT, 1 mM EGTA, 25 mM Tricine, pH 7.8) and Luciferin assay buffer (0.73 mM ATP, 22.3 mM Tricine, 0.11 mM EDTA, 33.3 mM DTT, 0.2M MgSO4, 11 mM Luciferin, 6.1 mM Coenzyme A, 0.01 mM HEPES, pH 7.8) were prepared. Media was removed from the plates and lysis buffer and luciferin assay buffer mixed in a 1:1 ratio and then 30 μl of the mixture was added to each well using a Multidrop dispenser. Plates were read on the Northstar (Applied Biosystems, Foster City, Calif.) and data was analyzed using ActivityBase (ID Business Solutions, Ltd., Guildford, Surrey, UK). If required, luciferase values may be normalized for transfection efficiency by measuring β-galactosidase activity based on expression from the pCMX-Gal expression plasmid as described previously (Willy et al., 1995, Gene & Development, 9:1033-1045).

Structure (SMILES) | IC50 [µM]
Cc1cc(C(=O)NCc2ccc(Oc3ccccc3)cc2)c(C)n1-c1ccccc1C(F)(F)F [2,5-dimethyl-1-(2-trifluoromethyl-phenyl)-1H-pyrrole-3-carboxylic acid 4-phenoxy-benzylamide] | 1 to 5
Cc1cc(C(=O)Nc2cc(C(F)(F)F)ccc2F)c(C)n1-c1ccccc1C(F)(F)F [2,5-dimethyl-1-(2-trifluoromethyl-phenyl)-1H-pyrrole-3-carboxylic acid (2-fluoro-5-trifluoromethyl-phenyl)-amide] | 1 to 5
Cc1cc(C(=O)NCCc2cccs2)c(C)n1-c1ccccc1C(F)(F)F [2,5-dimethyl-1-(2-trifluoromethyl-phenyl)-1H-pyrrole-3-carboxylic acid (2-thiophen-2-yl-ethyl)-amide] | 0.5 to 1
Cc1cc(C(=O)NCCc2ccccc2Cl)c(C)n1-c1ccccc1C(F)(F)F [2,5-dimethyl-1-(2-trifluoromethyl-phenyl)-1H-pyrrole-3-carboxylic acid [2-(2-chloro-phenyl)-ethyl]-amide] | 0.5 to 1
Cc1cc(C(=O)NCCc2cccc(Cl)c2)c(C)n1-c1ccccc1C(F)(F)F [2,5-dimethyl-1-(2-trifluoromethyl-phenyl)-1H-pyrrole-3-carboxylic acid [2-(3-chloro-phenyl)-ethyl]-amide] | 1 to 5
Cc1cc(C(=O)NCCc2ccccc2)c(C)n1-c1ccccc1C(F)(F)F [2,5-dimethyl-1-(2-trifluoromethyl-phenyl)-1H-pyrrole-3-carboxylic acid phenethyl-amide] | < 0.5
